Test results reported in patent US20040006236A1, “Diaminopropionic acid derivatives” (priority 1999, published 2004).

What was measured:
[1] = test system: cell-surface Mac-1 adhesion to immobilized fibrinogen (HL-60 cells); assay: Mac-1/Fibrinogen cell-based screening assay; design: species or system human; conditions: Homo sapiens, HL-60, HL-60 cells; read-out: Mac-1/Fgn Cell based Assay IC50
Experimental: Cellular Mac-1/Fibrinogen antagonist activity, defined as the ability to inhibit cell-surface Mac-1 adhesion to immobilized fibrinogen, was quantitated by a cell based assay. Human fibrinogen was coated onto 96 well microtiter plates (1 μg in 100 μL TBS) overnight at 4° C. The plates were then blocked with 150 μL of 10% polyvinyl pyrrolidone (PVP) in TBS for 1 h at 37° C. Plates were washed 3 times (150 μL each) with TBS. […] A ten-fold excess of volume of the same buffer was added and cells were centrifuged. The medium was decanted and cells were resuspended at a concentration of 2×10^6 cells/mL in RPMI/0.05% BSA/0.2 mM MnCl2. Stock solutions (10 mM in DMSO) of test compounds were diluted to 2.5 mM with DMSO. […] Each sample was further diluted 50-fold with RPMI/0.05% BSA/0.2 mM MnCl2. Equal volumes of labeled cells were then added to assay tubes containing diluted compounds. […] Cells were incubated for 10 min at 37° C. with gentle shaking, then dispensed (100 μL per well) onto fibrinogen coated plates and incubated for 30 min at 37° C./5% CO2. Unbound cells were gently washed with TBS two times.

[2] = target: T1, ICAM-1 binding to immobilized Mac-1 (Homo sapiens, UniProt P05107+P11215); assay: Mac-1/ICAM-1 screening assay (solid-phase ELISA); conditions: read-out: Mac-1/ICAM-1 Protein-Protein Assay IC50
T1 construct: made in house; host or cells: transfected 293 cells (Mac-1)
Experimental: (b) Mac-1/ICAM-1 screening test: Mac-1/ICAM-1 antagonist activity, defined as the ability to compete with ICAM-1 binding to immobilized Mac-1, was quantitated by a solid-phase ELISA.
(§1) Membrane-bound Mac-1 derived from transfected 293 cells was coated onto 96-well microtiter plates (50 μL/well, 3 μg/mL Mac-1 in 20 mM Hepes, pH 7.2/0.14 M NaCl/1 mM MnCl2) overnight at 4° C. The plates were blocked with 100 μL/well of 0.5% BSA in 20 mM Hepes, pH 7.2/0.14 M NaCl/1 mM MnCl2 at 37° C. for 1 h and washed 3 times (120 μL each) with Binding Buffer (20 mM Hepes, pH 7.2/0.14 M NaCl/1 mM MnCl2/0.05% Tween 20). Test compounds were dissolved in 100% DMSO and diluted 1:50 in Binding Buffer plus 10% DMSO. A series of 1:4 dilutions were performed for each compound (concentration range, 0.12 nM-20 μM). Each dilution (25 μL/well) was added to the plates, followed by 25 μL/well of 5 dICAM-Ig (40 μg/mL in Binding Buffer). The plates were shaken vigorously for 1 min (room temperature), followed by gentle agitation for 2 h (37° C.), and washed with Binding Buffer (3 times, 120 μL each). HRP-conjugated goat anti-human IgG(Fc-specific) antibody (0.125 μg/mL in Binding Buffer plus 0.05% BSA) was added to each well (50 μL/well), followed by incubation for 1 h at 37° C. The plates were then washed 3 times with Binding Buffer (120 μL each). TMB solution (100 μL/well) was added to each well for color development for 10 min. The reaction was stopped with 1 M H3PO4 (100 μL/well) and the plates were read at 450 nm. The inhibitory activities of test compounds were determined by the IC50s.
as §1, with “Mac-1/ICAM-1 antagonist activity, defined as the ability to compete with ICAM-1 binding to immobilized Mac-1, was quantitated by a solid-phase ELISA. Membrane-bound” for “Membrane-bound”, “5dICAM-Ig” for “5 dICAM-Ig”, “nm.” for “nm. The inhibitory activities of test compounds were determined by the IC50s.”

[3] = target: T2, LFA-1 binding to immobilized ICAM-1 (Homo sapiens, UniProt P05107+P20701); assay: LFA-1/ICAM-1 protein-protein assay (solid-phase ELISA); conditions: read-out: LFA-1/ICAM-1 Protein-Protein Assay IC50
T2 construct: made in house; host or cells: transfected 293 cells (LFA-1)
Experimental: (a) LFA-1/ICAM-1 screening test: LFA-1/ICAM-1 antagonist activity, defined as the ability of compounds of the invention to block LFA-1 binding to immobilized ICAM-1, was quantitated using a solid-phase ELISA.
(§2) Typically, fusion protein consisting of the entire extracellular domain of human ICAM-1 and the Fc domain of human IgG (5dICAM-Ig) was coated onto 96-well microtiter plates (0.15 μg in 100 μL PBS) overnight at 4° C. The plates were then blocked with 150 μL of 1% BSA/1 mM MnCl2/0.14 M NaCl/20 mM HEPES, pH 7.2 for 1 h at 37° C. and washed 3 times (150 μL each) with Wash Buffer (50 mM Tris, pH 7.4/100 mM NaCl/1 mM MnCl2/0.05% Tween 20). Stock solutions (100 μM in 100% DMSO) of test compounds were diluted 50 fold with 150 μL of Binding Buffer (0.05% BSA/0.05% Tween 20/1 mM MnCl2/0.14 M NaCl/20 mM HEPES, pH 7.2) plus 10% DMSO. […] Fifty μL per well of each dilution was added to the ICAM-1 coated plates, followed by 50 μL per well of membrane-bound LFA-1 (280 ng/mL in Binding Buffer) derived from transfected 293 cells. The plates were shaken vigorously for 1 min (room temperature) and gently for 2 h (37° C.). After incubation, the plates were washed 3 times (150 μL each) with Wash Buffer. Mouse anti-human integrin β2 monoclonal antibody was added (100 μL/well, 1 μg/mL in Binding Buffer) and allowed to incubate for 1 h (37° C.) with gentle agitation. The plates were then washed 3 times with Wash Buffer. HRP-conjugated goat anti-mouse IgG (100 μL/well, 1:1500 dilution in Binding Buffer) was added to each well, followed by incubation for 1 h (37° C.), and concluded by three washes (150 μL each) with Wash Buffer. TMB solution (100 μL per well) was added for color development (10 min). The reaction was stopped by the addition of 100 μL of 1 M H3PO4 to each well. The plates were then read at 450 nm. The inhibitory activities of test compounds were determined by the IC50s.
as §2, with “LFA-1/ICAM-1 antagonist activity, defined as the ability to block LFA-1 binding to immobilized ICAM-1, was quantitated using a solid-phase ELISA. Typically,” for “Typically,”, “(0.05 %” for “(0.05%”, “nm.” for “nm. The inhibitory activities of test compounds were determined by the IC50s.”

T1 sequence (P05107 23-769, other chains not shown): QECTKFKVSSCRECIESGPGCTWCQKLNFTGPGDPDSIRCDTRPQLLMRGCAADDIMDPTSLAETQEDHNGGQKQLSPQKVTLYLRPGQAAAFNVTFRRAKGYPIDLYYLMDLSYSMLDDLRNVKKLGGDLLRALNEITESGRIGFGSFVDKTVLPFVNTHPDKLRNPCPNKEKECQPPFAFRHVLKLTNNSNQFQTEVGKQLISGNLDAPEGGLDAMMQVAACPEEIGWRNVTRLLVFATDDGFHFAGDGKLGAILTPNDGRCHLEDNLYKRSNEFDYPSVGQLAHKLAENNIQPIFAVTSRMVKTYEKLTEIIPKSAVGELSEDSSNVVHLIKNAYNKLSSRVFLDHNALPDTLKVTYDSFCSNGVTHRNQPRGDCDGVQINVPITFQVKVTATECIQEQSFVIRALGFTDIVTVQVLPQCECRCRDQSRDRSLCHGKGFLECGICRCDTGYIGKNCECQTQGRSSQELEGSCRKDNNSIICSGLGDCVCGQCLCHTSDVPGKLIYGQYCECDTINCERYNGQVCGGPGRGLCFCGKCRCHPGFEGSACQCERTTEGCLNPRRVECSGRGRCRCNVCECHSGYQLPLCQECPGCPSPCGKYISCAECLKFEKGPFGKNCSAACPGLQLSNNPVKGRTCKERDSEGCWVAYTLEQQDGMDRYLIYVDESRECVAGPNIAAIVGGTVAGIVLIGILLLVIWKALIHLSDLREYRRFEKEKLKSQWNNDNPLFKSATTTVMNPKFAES
T2 sequence (P20701 26-1170): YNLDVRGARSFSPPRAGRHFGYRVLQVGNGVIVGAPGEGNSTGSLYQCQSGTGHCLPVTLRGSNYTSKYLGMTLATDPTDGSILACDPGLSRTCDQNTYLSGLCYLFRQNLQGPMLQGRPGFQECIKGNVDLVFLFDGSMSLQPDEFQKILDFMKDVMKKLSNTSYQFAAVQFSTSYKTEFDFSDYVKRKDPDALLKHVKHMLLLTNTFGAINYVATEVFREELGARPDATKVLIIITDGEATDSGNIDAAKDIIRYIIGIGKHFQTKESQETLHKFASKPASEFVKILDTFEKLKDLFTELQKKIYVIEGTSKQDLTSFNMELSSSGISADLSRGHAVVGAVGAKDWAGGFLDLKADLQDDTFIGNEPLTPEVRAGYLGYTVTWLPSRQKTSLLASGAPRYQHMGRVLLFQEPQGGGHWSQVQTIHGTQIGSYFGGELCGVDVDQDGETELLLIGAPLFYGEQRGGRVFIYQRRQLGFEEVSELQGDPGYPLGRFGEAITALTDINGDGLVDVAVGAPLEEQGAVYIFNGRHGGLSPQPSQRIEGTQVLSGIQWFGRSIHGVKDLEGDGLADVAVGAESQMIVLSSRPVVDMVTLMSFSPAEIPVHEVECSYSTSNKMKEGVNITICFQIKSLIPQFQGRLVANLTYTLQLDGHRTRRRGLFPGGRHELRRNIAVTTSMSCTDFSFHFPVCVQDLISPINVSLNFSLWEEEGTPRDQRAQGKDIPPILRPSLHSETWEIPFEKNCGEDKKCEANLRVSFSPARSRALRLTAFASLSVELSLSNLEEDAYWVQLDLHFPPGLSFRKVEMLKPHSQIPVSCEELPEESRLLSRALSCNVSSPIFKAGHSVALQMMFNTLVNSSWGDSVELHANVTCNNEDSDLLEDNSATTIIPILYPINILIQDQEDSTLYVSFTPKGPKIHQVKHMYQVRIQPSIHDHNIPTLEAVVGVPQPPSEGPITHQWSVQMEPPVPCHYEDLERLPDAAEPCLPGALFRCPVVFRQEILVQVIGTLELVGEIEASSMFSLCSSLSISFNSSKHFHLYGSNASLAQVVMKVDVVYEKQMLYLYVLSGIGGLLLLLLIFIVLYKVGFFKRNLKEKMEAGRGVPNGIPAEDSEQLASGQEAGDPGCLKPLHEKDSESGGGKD
T2 sequence (P05107 23-769): as the sequence (P05107 23-769, other chains not shown) above

Row | Compound | IC50 [1] | IC50 [2] | IC50 [3]
1 | O=C(NCc1cccc(O)c1)c1ccc(C(=O)N[C@@H](CNC(=O)c2cc([N+](=O)[O-])[nH]n2)C(=O)O)c(Cl)c1 [Example 152] | 1220 nM | – | –
2 | O=C(NCc1cccc(O)c1)c1ccc(C(=O)N[C@@H](CNC(=O)c2cc(=O)[nH]c(=O)[nH]2)C(=O)O)c(Cl)c1 [Example 173] | – | 36 nM | 0.6 nM
3 | O=C(NCc1cccc(O)c1)c1ccc(C(=O)N[C@@H](CNC(=O)c2cc3ccccc3o2)C(=O)O)c(Cl)c1 [Example 174] | – | 91 nM | 3.4 nM
4 | O=C(NCc1cccc(O)c1)c1ccc(C(=O)N[C@@H](CNC(=O)c2ccc3[nH]cnc3c2)C(=O)O)c(Cl)c1 [Example 176] | – | 54 nM | 1.2 nM
5 | O=C(NCc1cccc(O)c1)c1ccc(C(=O)N[C@@H](CNC(=O)c2nccc3ccccc23)C(=O)O)c(Cl)c1 [Example 180] | – | 48 nM | 0.6 nM
6 | O=C(NCc1cccc(O)c1)c1ccc(C(=O)N[C@@H](CNC(=O)c2ccc3ccccc3n2)C(=O)O)c(Cl)c1 [Example 181] | – | 176 nM | 12 nM
7 | O=C(NCc1cccc(O)c1)c1ccc(C(=O)N[C@@H](CNC(=O)c2ccnc3ccccc23)C(=O)O)c(Cl)c1 [Example 184] | – | 91 nM | 2.5 nM
8 | O=C(NCc1cccc(O)c1)c1ccc(C(=O)N[C@@H](CNC(=O)c2cnnc3ccccc23)C(=O)O)c(Cl)c1 [Example 185] | – | 187 nM | 1.3 nM
9 | O=C(NCc1cccc(O)c1)c1ccc(C(=O)N[C@@H](CNC(=O)c2nc3ccccc3nc2O)C(=O)O)c(Cl)c1 [Example 186] | – | 167 nM | 1.6 nM
10 | O=C(NCc1cccc(O)c1)c1ccc(C(=O)N[C@@H](CNC(=O)c2cc3ccccc3oc2=O)C(=O)O)c(Cl)c1 [Example 188] | – | 146 nM | 3.4 nM
11 | O=C(NCc1cccc(O)c1)c1ccc(C(=O)N[C@@H](CNC(=O)c2c3ccccc3cc3ccccc23)C(=O)O)c(Cl)c1 [Example 189] | – | 1050 nM | 18 nM
12 | COc1ccc2nc3ccc(C(=O)NC[C@H](NC(=O)c4ccc(C(=O)NCc5cccc(O)c5)cc4Cl)C(=O)O)cn3c(=O)c2c1 [Example 191] | – | 130 nM | 2.2 nM
13 | O=C(NC[C@H](NC(=O)c1c(F)cccc1Cl)C(=O)O)c1ccccc1 [Example 220] | – | 304 nM | 14 nM
14 | O=C(COc1ccccc1)c1ccc(C(=O)N[C@@H](CNC(=O)c2cccs2)C(=O)O)c(Cl)c1 [Example 376, N-[2-chloro-4-(phenoxyacetyl)benzoyl]-3-(thiophene-2-carbonyl)amino-L-alanine] | – | 152 nM | 37 nM
